Experimental data as given in US11197846B2, “Methods and compositions for treating cannabis use disorder and mitigating cannabinoid withdrawal” (Pleopharma, L.L.C., priority 2020, dated 2021).
“Also recorded” adds a separate entry of the source.

Columns and labels:
[1] = reported; cited from earlier work
[2] = Plasma pharmacokinetics of nabilone and gabapentin after oral PP-01 once daily for four doses (LC-MS/MS), Example 1 clinical study; conditions: for AUC(0-t) / AUC(0-inf) / Cmax / Tmax / half-life: human, plasma, oral; for AUC(0-inf): AUC0-∞; for Pharmacokinetics compared with historical controls: nabilone and gabapentin given together as PP-01
Source text: A total of 14 eligible healthy volunteers with moderate to severe CUD and no contraindications to nabilone or gabapentin were randomized to receive PP-01 (nabilone and gabapentin; Test) or Placebo, in a 1:1 ratio, from a randomization table at the start of Period 1 (Day −1). If participants received PP-01 in Period 1, they received Placebo in Period 2; similarly, if participants received Placebo in Period 1, they received PP-01 in Period 2. Participants received oral doses of PP-01 or Placebo approximately 2 hours before a standardized meal on the morning on the second day of each inpatient admission (Day 1, Periods 1 and 2) and continued to receive once-daily dosing in the morning for a total of four doses per period.
On Day 1, the 0-hour PK blood draw was obtained within 30 minutes prior to the first dose of study drug which was administered by the Investigator (or a staff member as delegated by the Investigator) at approximately 120 minutes prior to the morning standardized breakfast. Venous blood samples of approximately 10 mL each were obtained at the following times following the Day 1 dose to assess nabilone and gabapentin concentrations: 30 and 60 minutes, and 2, 3, and 4 hours (within ±5 minutes of each time point), and 6, 8, 12, and 24 hours (within ±10 minutes of each time point) after study drug administration. The CWS was completed by participants prior to dosing (Baseline) and at 4- and 10-hours post-dose and the sleep questionnaire was completed in the morning prior to dosing. Blood samples to assess serum cortisol were obtained in the evening. Routine safety assessments were performed as scheduled.
On Day 4, the 0-hour PK blood draw was obtained within 30 minutes prior to the dosing of study drug, which was administered by the Investigator (or a staff member as delegated by the Investigator) at approximately 120 minutes prior to the morning standardized breakfast. Venous blood samples of approximately 10 mL each were obtained at the following times following the Day 4 dose to assess nabilone and gabapentin concentrations: 30 and 60 minutes, and 2, 3, and 4 hours (within ±5 minutes of each time point), and 6, 8, 12, and 24 hours (within ±10 minutes of each time point) after study drug administration. The CWS was completed by participants prior to dosing and at 4- and 10-hours post-dose and the sleep questionnaire was completed in the morning prior to dosing; the PGI-S and CGI were completed approximately 4 hours after dosing. Blood samples to assess serum cortisol were obtained in the evening. Routine safety assessments were performed as scheduled.
The following PK assessments were assessed in Periods 1 and 2 on Day 1, Day 2 (trough), Day 4, Day 5 (trough), and Day 8 for nabilone and gabapentin. Baseline concentrations were defined as the 0-minute time point (within 30 minutes of dosing) on Day 1 (Periods 1 and 2). • Area under the plasma concentration-time curve from 0 to the last measurable concentration (AUC0-t) • Area under the plasma concentration-time curve extrapolated to infinity (AUC0-∞) • Peak (maximum) plasma concentration of the drug (Cmax) • Time to peak (maximum) plasma concentration (tmax) • Elimination half-life (t1/2)
Venous blood samples of 10 ml each were collected with K2EDTA anticoagulant for Baseline levels of Δ-9-THC, 11-OHTHC and THC-COOH on Day −1 (Periods 1 and 2). For Periods 1 and 2, levels of nabilone and gabapentin were assessed following the time points listed in Table 2 following the first and fourth dose. Study participants returned on Day 8 (Periods 1 and 2) to have PK samples drawn to help determine the terminal half-life of nabilone. The Baseline (0-hour) time point was collected within 30 minutes prior to dosing.
Baseline concentrations of Δ-9-THC, 11-OHTHC and THC-COOH were determined using a validated liquid chromatographic-tandem mass spectroscopy (LC-MS/MS) assay with a lower limit of quantification (LLOQ) of 0.200 ng/mL.

[3] = tested on: GABA receptors; conditions: concentrations at or below 1 millimolar; cited from earlier work
[4] = pH values ranging from 1.2 to 7.0; cited from earlier work
[5] = 600 mg, gabapentin 600 mg, Sequence AB, Days 1-2, arithmetic mean
[6] = 600 mg, gabapentin 600 mg, Sequence AB, Days 4-5, arithmetic mean
[7] = 600 mg, gabapentin 600 mg, Sequence BA, Days 1-2, arithmetic mean
[8] = 600 mg, gabapentin 600 mg, Sequence BA, Days 4-5, arithmetic mean
[9] = 6 mg, nabilone 6 mg, Days 1-2, both sequences, arithmetic mean
[10] = 6 mg, nabilone 6 mg, Days 4-5, both sequences, arithmetic mean

In the case of `CCCCCc1cc(O)c2c(c1)OC(C)(C)[C@@H]1CCC(CO)=C[C@@H]21` [11-OH-delta-9-THC, 11-hydroxy-delta-9-tetrahydrocannabinol], the “agonist potency relative to delta-9-THC” value [1] is listed as “more potent agonist than delta-9-THC”.

With `NCC1(CC(=O)O)CCCCC1` [Gabapentin, 1-(aminomethyl)cyclohexaneacetic acid] the t1/2 ([2]; gabapentin 600 mg, Sequence BA, Days 1-2, arithmetic mean) was 5.3 h, the “exposure metrics (Cmax, AUC0-24, AUC0-∞) over time” value ([2]; gabapentin, Days 4 to 5 vs Days 1 to 2) was “exposure slightly increased at Days 4 to 5 compared to Days 1 to 2” and the AUC(0-t) ([2]; 600 mg, AUC0-24, gabapentin 600 mg, Sequence AB, Days 1-2, arithmetic mean) was 65700 ng·h/mL. For the same molecule, the AUC(0-t) ([2]; 600 mg, AUC0-24, gabapentin 600 mg, Sequence AB, Days 4-5, arithmetic mean) was 70500 ng·h/mL, the AUC(0-t) ([2]; 600 mg, AUC0-24, gabapentin 600 mg, Sequence BA, Days 1-2, arithmetic mean) was 53600 ng·h/mL and the AUC(0-t) ([2]; 600 mg, AUC0-24, gabapentin 600 mg, Sequence BA, Days 4-5, arithmetic mean) was 58100 ng·h/mL. The AUC(0-inf) [2, 5] was 70000 ng·h/mL, the AUC(0-inf) [2, 6] was 74900 ng·h/mL and the AUC(0-inf) [2, 7] was 57200 ng·h/mL. It also gave an AUC(0-inf) [2, 8] of 63100 ng·h/mL, a Cmax [2, 5] of 6080 ng/mL and a Cmax [2, 6] of 7010 ng/mL. For the same molecule, the Cmax [2, 7] was 5170 ng/mL, the Cmax [2, 8] was 5510 ng/mL and the Tmax ([2]; 600 mg, Tmax, gabapentin 600 mg, Sequence AB, Days 1-2, arithmetic mean ± SD) was 3.7 ± 1.1 h. For the same molecule, the Tmax ([2]; 600 mg, Tmax, gabapentin 600 mg, Sequence AB, Days 4-5, arithmetic mean ± SD) was 3.3 ± 0.8 h, the Tmax ([2]; 600 mg, Tmax, gabapentin 600 mg, Sequence BA, Days 1-2, arithmetic mean ± SD) was 3.7 ± 0.5 h and the Tmax ([2]; 600 mg, Tmax, gabapentin 600 mg, Sequence BA, Days 4-5, arithmetic mean ± SD) was 1 ± 1.1 h. It also gave a half-life ([2]; 600 mg, t1/2, gabapentin 600 mg, Sequence AB, Days 1-2, arithmetic mean) of 5.4 h, a half-life ([2]; 600 mg, t1/2, gabapentin 600 mg, Sequence AB, Days 4-5, arithmetic mean) of 5.5 h and a half-life ([2]; 600 mg, t1/2, gabapentin 600 mg, Sequence BA, Days 4-5, arithmetic mean) of 6.3 h. For the same molecule, the AUC(0-t) ([2]; AUC0-24, gabapentin, range across days and sequences) was 53600 to 70500 ng·h/mL, the Tmax ([2]; mean Tmax, gabapentin, across days and sequences) was 3.3 to 4 h and the half-life ([2]; mean t1/2, gabapentin, range across treatment (days, sequence)) was 5.3 to 6.3 h. The “Pharmacokinetics compared with historical controls” value [2] was “consistent with historical controls” and the “binding to GABA receptors” value [3] was “has not been shown to bind to GABA receptors”.

With `CCCCCCC(C)(C)c1cc(O)c2c(c1)OC(C)(C)C1CCC(=O)CC21` (racemic) [Nabilone, (±)-trans-3-(1,1-dimethylheptyl)-6,6a,7,8,10,10a-hexahydro-1-hydroxy-6-6-dimethyl-9H-dibenzo[b,d]pyran-9-one] the AUC(0-t) ([2]; 6 mg, AUC0-24, nabilone 6 mg, Days 1-2, both sequences, arithmetic mean) was 34.1 ng·h/mL, the AUC(0-t) ([2]; 6 mg, AUC0-24, nabilone 6 mg, Days 4-5, both sequences, arithmetic mean) was 33.9 ng·h/mL and the AUC(0-inf) [2, 9] was 35.8 ng·h/mL. It also gave an AUC(0-inf) [2, 10] of 37.4 ng·h/mL, a Cmax [2, 9] of 8.51 ng/mL and a Cmax [2, 10] of 8.59 ng/mL. It also gave a Tmax ([2]; 6 mg, Tmax, nabilone 6 mg, Days 1-2, both sequences, PK population, arithmetic mean ± SD) of 2.5 ± 1.5 h, a Tmax ([2]; 6 mg, Tmax, nabilone 6 mg, Days 4-5, both sequences, arithmetic mean ± SD) of 2.3 ± 0.9 h and a half-life ([2]; 6 mg, t1/2, nabilone 6 mg, Days 1-2, both sequences, arithmetic mean ± SD) of 6.4 ± 1.7 h. The half-life ([2]; 6 mg, t1/2, nabilone 6 mg, Days 4-5, both sequences, arithmetic mean ± SD) was 9.9 ± 2.5 h, the Tmax ([2]; mean time to maximal concentration (Tmax), nabilone) was about 2.5 h and the “Pharmacokinetics compared with historical controls” value [2] was “consistent with historical controls”. For the same molecule, the “accumulation over the period studied” value ([2]; nabilone, Days 1 to 2 vs Days 4 to 5) was “no accumulation occurred; also recorded: minimal accumulation” and the “solubility in aqueous media” value [4] was “less than 0.5 mg/L”.
